According to US4172891A, “Cephalosporins” (Takeda Chemical Industries, Inc., priority 1976, dated 1979):
Read-outs that look alike come from different tables or passages of the source.

Assays:
[1] = tested on: E. coli NIHJ; assay: Minimum Inhibitory Concentration, agar dilution, E. coli NIHJ; type: cell-based; conditions: Escherichia coli, read-out: Minimum Inhibitory Concentration
Excerpt: (§1) […]. | Minimum Inhibitory Concentrations (mcg/ml, agar dilution)

[2] = tested on: E. coli O-111; assay: Minimum Inhibitory Concentration, agar dilution, E. coli O-111; type: cell-based; conditions: Escherichia coli
Excerpt: (§2) Following each example is a tabulation of the minimal inhibitory concentrations (MIC) of the present compound [I] obtained in accordance with the particular example against several representative gram-negative bacteria and the corresponding concentrations of cephaloridine [7-(2-thienylacetamido)-3-(1-pyridyl)methyl-3-cephem-4-carboxylic acid betaine] and cefazolin [sodium 7-(1H-tetrazol-1-yl)acetamido-3-(2-methyl-1,3,4-thiadiazol-5-yl)thiomethyl-3-cephem-4-carboxylate], both of which are typical cephalosporins commercially available and clinically accepted nowadays [The New England Journal of Medicine 294, 24 (1976) and Journal of Pharmaceutical Science 64, 1899 (1975)]. There are also shown the effective doses of the typical compounds of this invention on the mice infected with Escherichia coli in comparison with that of cephaloridine.
Minimum Inhibitory Concentrations (mcg/ml, agar dilution)

[3] = tested on: E. coli T-7; assay: Minimum Inhibitory Concentration, agar dilution, E. coli T-7; type: cell-based; conditions: Escherichia coli
Excerpt: as §1

[4] = tested on: K. pneumoniae DT; assay: Minimum Inhibitory Concentration, agar dilution, K. pneumoniae DT; type: cell-based; conditions: Klebsiella pneumoniae, read-out: Minimum Inhibitory Concentration
Excerpt: as §1

[5] = tested on: P. vulgaris IFO 3988; assay: Minimum Inhibitory Concentration, agar dilution, P. vulgaris IFO 3988; type: cell-based; conditions: Proteus vulgaris
Excerpt: as §1

[6] = tested on: P. mirabilis GN 4359; assay: Minimum Inhibitory Concentration, agar dilution, P. mirabilis GN 4359; type: cell-based; conditions: Proteus mirabilis
Excerpt: as §1

[7] = tested on: P. morganii IFO 3168; assay: Minimum Inhibitory Concentration, agar dilution, P. morganii IFO 3168; type: cell-based, Proteus morganii; conditions: Morganella morganii
Excerpt: as §1

[8] = tested on: P. rettgeri 8(TNO 336); assay: Minimum Inhibitory Concentration, agar dilution, P. rettgeri 8(TNO 336); type: cell-based, Proteus rettgeri; conditions: Providencia rettgeri
Excerpt: as §1

[9] = tested on: P. rettgeri GN 4733; assay: Minimum Inhibitory Concentration, agar dilution, P. rettgeri GN 4733; type: cell-based, Proteus rettgeri; conditions: Providencia rettgeri
Excerpt: as §1

[10] = tested on: Cit. freundii GN 99; assay: Minimum Inhibitory Concentration, agar dilution, Cit. freundii GN 99; type: cell-based; conditions: Citrobacter freundii
Excerpt: as §1

[11] = tested on: Cit. freundii GN 1706; assay: Minimum Inhibitory Concentration, agar dilution, Cit. freundii GN 1706; type: cell-based; conditions: Citrobacter freundii
Excerpt: as §1

[12] = tested on: K. pneumoniae GN 3835; assay: Minimum Inhibitory Concentration, agar dilution, K. pneumoniae GN 3835; type: cell-based; conditions: Klebsiella pneumoniae
Excerpt: as §1

[13] = tested on: Escherichia coli O-111; assay: Comparative protection test on infected mice; type: in vivo; conditions: O111, sc, 168 h; male ICR/SLC mice infected intraperitoneally with Escherichia coli O-111; single subcutaneous dose immediately after challenge; 7 days observation
Excerpt: as §2
Comparative protection tests of the compounds of this
invention and cephaloridine on infected mice
*Test animals: male mice (ICR/SLC) 5 mice per group per single dose
Infection: intraperitoneally with Escherichia coli O-111
Administration: a single subcutaneous dose immediately after challenge
Observation period: 7 days

[14] = tested on: Ent. cloacae IFO 12937; assay: Minimum Inhibitory Concentration, agar dilution, Ent. cloacae IFO 12937; type: cell-based; conditions: Enterobacter cloacae, IFO12937; Ent. cloacae IFO 12937; agar dilution; read-out: Minimum Inhibitory Concentration
[15] = O111, E. coli O-111, agar dilution, read-out: Minimum Inhibitory Concentration
[16] = T7, E. coli T-7, agar dilution, read-out: Minimum Inhibitory Concentration
[17] = K. pneumoniae DT, agar dilution
[18] = IFO3988, P. vulgaris IFO 3988, agar dilution, read-out: Minimum Inhibitory Concentration
[19] = GN4359, P. mirabilis GN 4359, agar dilution, read-out: Minimum Inhibitory Concentration
[20] = IFO3168, P. morganii IFO 3168, agar dilution, read-out: Minimum Inhibitory Concentration
[21] = P. rettgeri 8(TNO 336), read-out: Minimum Inhibitory Concentration
[22] = GN4733, P. rettgeri GN 4733, agar dilution, read-out: Minimum Inhibitory Concentration
[23] = GN99, Cit. freundii GN 99, agar dilution, read-out: Minimum Inhibitory Concentration
[24] = GN1706, Cit. freundii GN 1706, agar dilution, read-out: Minimum Inhibitory Concentration
[25] = GN3835, K. pneumoniae GN 3835, agar dilution, read-out: Minimum Inhibitory Concentration

Structure (SMILES) | MIC ([1]; E. coli NIHJ, agar dilution) | MIC [2, 15] | MIC [3, 16] | MIC [4, 17] | MIC [5, 18] | MIC [6, 19] | MIC [7, 20] | MIC [8, 21] | MIC [9, 22] | MIC [10, 23] | MIC [11, 24] | MIC [12, 25] | further results
Cc1nsc(SCC2=C(C(=O)O)N3C(=O)C(NC(=O)Cc4csc(=N)n4O)C3SC2)n1 (stereo not drawn) [Example 15, sodium 7-[2-(2-imino-3-hydroxy-4-thiazolin-4-yl)acetamido]-3-(3-methyl-1,2,4-thiadiazol-5-yl) thiomethyl-3-cephem-4-carboxylate] | 0.39 µg/mL | 0.1 µg/mL | 6.25 µg/mL | 0.1 µg/mL | 0.1 µg/mL | 0.1 µg/mL | 1.56 µg/mL | ≤ 0.012 µg/mL | 0.2 µg/mL | 0.78 µg/mL | 12.5 µg/mL |  | 
N=c1scc(CC(=O)NC2C(=O)N3C(C(=O)O)=C(CSc4nnnn4CCO)CSC23)n1O (stereo not drawn) [Example 17, sodium 7-[2-(2-imino-3-hydroxy-4-thiazolin-4-yl)acetamido]-3-[1-(2-hydroxyethyl)-1H-tetrazol-5-yl]thiomethyl-3-cephem-4-carboxylate] | 0.1 µg/mL | 0.05 µg/mL | 1.56 µg/mL | 0.05 µg/mL | 0.2 µg/mL | 0.1 µg/mL | 0.39 µg/mL | ≤ 0.012 µg/mL | 0.05 µg/mL | 0.39 µg/mL | 12.5 µg/mL | 0.1 µg/mL | 
Cn1nnnc1SCC1=C(C(=O)O)N2C(=O)C(NC(=O)Cc3csc(=N)n3O)[C@H]2SC1 (stereo partly drawn) [Example 9, 7-[2-(2-imino-3-hydroxy-4-thiazolin-4-yl)acetamido]-3-(1-methyltetrazol-5-yl)thiomethyl-3-cephem-4-carboxylic acid] |  |  |  |  |  |  |  |  |  |  |  |  | ED50 [13]: 0.04 mg/kg
Cc1nnc(SCC2=C(C(=O)[O-])N3C(=O)C(NC(=O)Cn4cnnn4)[C@H]3SC2)s1.[Na+] (stereo partly drawn) [Cefazolin, sodium 7-(1H-tetrazol-1-yl)acetamido-3-(2-methyl-1,3,4-thiadiazol-5-yl)thiomethyl-3-cephem-4-carboxylate, reference compound] |  | 1.56 µg/mL |  |  |  |  |  |  |  |  |  |  | MIC [1]: 1.56 µg/mL; MIC ([3]; T7, read-out: Minimum Inhibitory Concentration): > 100 µg/mL; MIC [4]: 1.56 µg/mL; MIC ([12]; GN3835, read-out: Minimum Inhibitory Concentration): 12.5 µg/mL; MIC ([5]; IFO3988, read-out: Minimum Inhibitory Concentration): 3.13 µg/mL; MIC ([6]; GN4359, read-out: Minimum Inhibitory Concentration): 3.13 µg/mL; MIC ([7]; IFO3168, read-out: Minimum Inhibitory Concentration): > 100 µg/mL; MIC ([8]; read-out: Minimum Inhibitory Concentration, P. rettgeri 8(TNO 336)): 0.2 µg/mL; MIC ([9]; GN4733, read-out: Minimum Inhibitory Concentration): > 100 µg/mL; MIC ([10]; GN99, read-out: Minimum Inhibitory Concentration): 50 µg/mL; MIC ([11]; GN1706, read-out: Minimum Inhibitory Concentration): > 100 µg/mL
N=c1scc(CC(=O)NC2C(=O)N3C(C(=O)O)=C(CSc4nnc(C(F)(F)F)s4)CSC23)n1O (stereo not drawn) [Example 16, sodium 7-[2-(2-imino-3-hydroxy-4-thiazolin-4-yl)acetamido]-3-(2-trifluorometyl-1,3,4-thiadiazol-5-yl)thiomethyl-3-cephem-4-carboxylate] | 0.78 µg/mL |  | 12.5 µg/mL | 0.39 µg/mL | 0.2 µg/mL | 0.78 µg/mL | 3.13 µg/mL | ≤ 0.012 µg/mL | 1.56 µg/mL | 0.78 µg/mL | 6.25 µg/mL |  | MIC ([2]; O111, read-out: Minimum Inhibitory Concentration): 0.39 µg/mL
Cn1nnnc1SCC1=C(C(=O)O)N2C(=O)C(NC(=O)Cc3csc(=N)n3O)C2SC1 (stereo not drawn) [Example 5, sodium 7-[2-(2-imino-3-hydroxy-4-thiazolin-4-yl)acetamido]-3-(1-methyltetrazol-5-yl) thiomethyl-3-cephem-4-carboxylate] | 0.05 µg/mL | ≤ 0.03 µg/mL | 1.56 µg/mL | 0.05 µg/mL | 0.2 µg/mL | 0.1 µg/mL | 0.78 µg/mL | ≤ 0.03 µg/mL | 0.05 µg/mL | 0.39 µg/mL | 0.78 µg/mL | 0.1 µg/mL | MIC [14]: 6.25 µg/mL
